In PubChem BioAssay AID1241 (SRMLSC, 2008):
Active and inactive are the calls of the source. How the calls were made is not given here.

Experiment: compounds inducing NF-kB luciferase expression – cell-based, SH-SY5Y, dose response (AID 1241)
Settings: SH-SY5Y NF-kB promoter luciferase reporter, fold induction

SMILES | EC50
COc1ccccc1Nc1nc(-c2cccs2)cs1 | 3680 nM
COC(=O)CSc1nc2cc3c(cc2cc1C#N)OCO3 | 997 nM
Nc1c(C(=O)Nc2ccc(Cl)cc2)oc2ccccc12 | 11000 nM
N#C/C(=N\Nc1ccc(Cl)cc1)C(=N)N1CCCCC1 | 1720 nM
N/C(=N\OC(=O)COc1ccc(Cl)cc1Cl)c1ccccn1 | 1190 nM
Fc1c(F)c(F)c(N/N=C/c2c[nH]c3ccccc23)c(F)c1F | 3860 nM
O=C(Nc1ccn(Cc2ccccc2)n1)c1cccc(F)c1 | 15100 nM
Nc1nc(-c2ccccc2)nc2sc3c(c12)CCCC3 | 873 nM
Nc1nn(-c2ccccc2)c(N)c1N=Nc1ccc2c(c1)OCO2 | 1600 nM
COc1ccc(OCc2cccc(C(=O)O)c2)cc1 | 964 nM
CN(C)c1ccc(C(=O)/C=C/c2ccco2)cc1 | 1960 nM
NC(=O)c1ccc(-c2ncc(-c3ccccc3)o2)cc1 | 403 nM
COc1ccc(Nc2nc(-c3ccccc3)cs2)cc1 | 752 nM
O=C(c1cnn(-c2ccc(Cl)cc2)c1)c1ccccc1O | 1720 nM
O=C(Oc1c(CN2CCOCC2)cc(Cl)c2cccnc12)c1ccc(F)cc1 | 13100 nM
COc1ccc2nc(NC(=O)Nc3ccccc3)sc2c1 | 899 nM
O=C(COc1ccccc1Cl)Nc1ccc(Cl)cn1 | 15400 nM
Cc1ccsc1/C=N/Nc1nc2ccccc2s1 | 803 nM
CCOC(=O)c1cnc2c(-c3ccccc3)cnn2c1N | 5180 nM
COc1ccc(-c2cc(=O)c3c(O)c(OC)c(O)cc3o2)cc1 | 2290 nM
Cc1ccc(/C=N/Nc2cccc(C(=O)O)c2)s1 | 2120 nM
CC(C)(C)c1ccc2c(c1)C(=O)c1ccccc1C2=O | 3190 nM
O=C(CSC(=S)N1CCSCC1)c1ccccc1 | 3440 nM

SMILES | EC50
Cc1cc(C(=O)Nc2cccc(C(=O)O)c2)oc1C | 29800 nM
Cc1cc(NC(=O)c2ccccc2)sc1C | 17300 nM
c1ccc2c(c1)nnn1c3ccccc3nc21 | 346 nM
c1ccc(-c2ncc(-c3ccn[nH]3)s2)cc1 | 2320 nM
O=C(NCCSc1ccccc1)c1ccc(Br)cc1 | 1340 nM
COc1ccc(Nc2nc(-c3cccs3)cs2)c(OC)c1 | 2330 nM
Cc1c(C(=O)NC2=NCCS2)oc2ccccc12 | 1030 nM
Clc1ccccc1OCc1nc(-c2ccccn2)no1 | 2100 nM
O=C(/C=C/c1ccc(Cl)cc1Cl)Nc1cccc(S(=O)(=O)NC2=NCCC2)c1 | 1300 nM
Cc1ccc2nc(-c3ccc(NC(=O)COC(=O)c4ccc(Br)o4)cc3)sc2c1 | 485 nM
CC(=O)Oc1ccc(Cl)cc1/C=C/c1ccc2ccccc2n1 | 836 nM
Cc1ccc2nc(NC(=O)c3ccc(Cl)s3)sc2c1 | 1060 nM
COc1ccc(Cn2c(/C=C/c3ccccc3)nc3ccccc32)cc1 | 4870 nM
CSC(=S)N/N=C(\C)c1ccccc1 | 1170 nM
Cc1ccc(C(=O)c2cc([N+](=O)[O-])ccc2N2CCOCC2)c(C)c1 | 3030 nM
COc1ccc2cc(-c3cc(C(=O)O)c4ccccc4n3)ccc2c1 | 1140 nM
CCN(CC)S(=O)(=O)c1cc(C(=O)OCC(=O)Nc2ccc(-c3nc4ccc(C)cc4s3)cc2)ccc1F | 516 nM
O=C1C=C(Nc2ccccc2)C(=O)c2ccccc21 | 1350 nM
COc1ccc(C(=O)Nc2ccc3c(c2)OCCO3)cc1 | 1350 nM
COc1ccc2nc(-c3ccccc3)[nH]c2c1 | 1320 nM
Fc1ccccc1/C=C/c1ccc2ccccc2n1 | 319 nM
CCOC(=O)CSc1nc2cc(OC)ccc2cc1C#N | 144 nM
Cc1ccc(/C=C2\Sc3ccccc3C2=O)s1 | 5980 nM

SMILES | EC50
Oc1ccccc1-c1cc(-c2cccc(F)c2)n[nH]1 | 7730 nM
O=C(/C=C/c1ccccc1Cl)Nc1cccc(O)c1 | 1120 nM
Oc1cccc(/C=N/Nc2cccc3cccnc23)c1 | 1350 nM
CC(C)c1ccc(OCc2nc(-c3ccccn3)no2)c(Br)c1 | 1030 nM
CCOC(=O)c1sc2nc3c(cc2c1N)COC(C)(CC)C3 (centres undefined) | 1450 nM
Cc1ccccc1-c1noc(-c2ccc(O)cc2)n1 | 6210 nM
COCCNc1nc(-c2cc3ccccc3o2)cs1 | 1400 nM
COc1cccc(-c2nc(-c3ccccc3)no2)c1 | 1490 nM
Oc1ccc(-c2csc(Nc3ncccn3)n2)c(O)c1 | 945 nM
Fc1ccc(-c2cnn3c(-c4ccncc4)ccnc23)cc1 | 1240 nM
COc1ccc2c(c1)CC/C2=N\OC(=O)c1ccccc1C | 1970 nM
O=C(O)c1cccc(N/N=C/c2cccs2)c1 | 1310 nM
COC(=O)c1ccc(-c2ccc(Cl)cc2)nc1C | 4440 nM
O=c1oc2ccccc2cc1-c1nnc(NCc2ccco2)s1 | 1330 nM
COc1cccc(-c2nc3ccccc3s2)c1 | 10900 nM
Cc1ccc2nc3cc([N+](=O)[O-])cc([N+](=O)[O-])c3cc2c1 | 1190 nM
Cc1ccnc(NS(=O)(=O)c2ccc(NC(=O)c3ccc([N+](=O)[O-])s3)cc2)n1 | 5770 nM
Oc1sc(C=Nc2ccccc2)c2ccccc12 | 10500 nM
Cc1nnc(SCc2cnc(-c3ccc(C(C)C)cc3)s2)n1C | 4570 nM
CCNc1nc(N)nc(-c2cc(Cl)ccc2O)n1 | 847 nM
CN(C)c1ccc(-c2nnc(-c3cccs3)o2)cc1 | 2240 nM
COc1ccc(-c2nnc(SCc3ccccc3F)o2)cc1 | 3890 nM
Cc1ccccc1C(=O)O/N=C1\CCS(=O)(=O)c2sccc21 | 3870 nM

SMILES | EC50
N/C(=N\N=C\c1cccc(O)c1)c1nonc1N | 3310 nM
CC(/C=N/Nc1nc2ccccc2[nH]1)=C\c1ccccc1 | 4160 nM
Fc1ccccc1SCc1nnc(-c2ccccc2Br)o1 | 818 nM
O=C(N/N=C/C(Br)=C/c1ccccc1)c1n[nH]c2c1CCC2 | 659 nM
O=C(NCc1cccnc1)c1ccc([N+](=O)[O-])o1 | 2810 nM
Cc1cc(C)c[n+](-c2nc3ccccc3nc2C(=C=[N-])C#N)c1 | 28000 nM
N#Cc1cccc(NCC(=O)Nc2ccc3c(c2)OCCO3)c1 | 6600 nM
COc1cccc(-c2nc3cc(C)ccc3o2)c1 | 1050 nM
O=C(N/N=C/C(Br)=C\c1ccccc1)c1n[nH]c2c1CCC2 | 1090 nM
CC(C)c1ccc(/C=C/c2ccc(=O)n(C)n2)cc1 | 8700 nM
Cc1ccc(C(=O)Nc2ccc3c(c2)CCC3)o1 | 31000 nM (inactive)
Oc1ccccc1/C=N/Nc1cccc2cccnc12 | 3580 nM
N/C(=N\OC(=O)c1cccc(Cl)c1)c1ccccn1 | 1950 nM
COc1ccc(Cn2c(C3CC3)nc3ccc(NC(=O)C4CC4)cc3c2=O)cc1 | 1300 nM
Cc1ccccc1OCC(=O)Nc1cccc(C(=O)O)c1 | 4050 nM
COc1ccc(-c2cn3ccsc3n2)cc1 | 12500 nM
Cc1cc(C)c2nc(NC(=O)C3CCCO3)sc2c1 (centres undefined) | 18600 nM
C(=N\Nc1ncnc2ccccc12)/c1ccccc1 | 4030 nM
O=C(Nc1ccc2sccc2c1)c1ccc(Cl)s1 | 511 nM
O=C(Nc1ccc2nsnc2c1)c1ccc2c(c1)OCO2 | 1850 nM
CC(=O)Oc1ccc(Oc2ccc(-c3noc(C)n3)cc2)cc1 | 2840 nM
CN(C)c1ccc(/C=c2\sc3n(c2=O)CCCN=3)cc1 | 11600 nM
O=C(Cc1nc(=O)c2ccccc2s1)Nc1ccccc1 | 220 nM

SMILES | EC50
Cc1ccnc(NC(=O)/C=C/c2ccccc2[N+](=O)[O-])c1 | 557 nM
Cc1cc(NC(=O)Nc2ccccc2F)ccc1Br | 4350 nM
Fc1ccccc1N1CCN(c2cnc3ccccc3n2)CC1 | 3330 nM
CCCCc1ccc(-c2ccc(Br)cc2)nc1 | 16300 nM
CC(=Nc1ccccc1)c1sc2ccccc2c1O | 6490 nM
Cc1ccc(-c2nc3ccc([N+](=O)[O-])cc3[nH]2)cc1 | 577 nM
Cc1ccc(NC(=O)c2ccccn2)c(Br)c1 | 18900 nM
Cc1ccc(NC(=O)/C(Cl)=C/c2ccccc2)cc1C | 2960 nM
Cc1ccc(-c2nc(-c3cccnc3)no2)cc1 | 1320 nM
CCCCCc1ccc(-c2ccc(C(=O)O)cc2)nc1 | 1410 nM
Nc1nc2ccc(-c3nc4ccccc4o3)cc2s1 | 1390 nM
CC(C)N=c1scc(-c2ccco2)n1/N=C/c1ccc(O)c(O)c1 | 6500 nM
COc1cc(/C=N/O)ccc1OCc1ccc([N+](=O)[O-])cc1 | 1690 nM
Brc1ccccc1/C=N/Nc1ccc2ccccc2n1 | 5500 nM
O=C(Nc1ccc(Cl)cn1)c1cc2ccccc2o1 | 2430 nM
CC(C)c1cc(C(=O)Nc2ccc3c(c2)OCO3)no1 | 3280 nM
CNc1nc(-c2ccc3c(c2)CCN3C(=O)c2ccccc2F)cs1 | 2660 nM
CC(=O)Nc1ccc2oc(-c3cc(F)c(F)cc3Cl)nc2c1 | 817 nM
CCOc1ccc(OCc2cccc(C(=O)O)c2)cc1 | 1850 nM
CCOC(=O)c1sc(NC(=O)Nc2ccc(F)cc2)nc1C | 2670 nM
CCOC(=O)c1sc(NC(=O)c2ccccc2)cc1C | 5740 nM
CCc1ccc(C2=NN(S(C)(=O)=O)C(c3cccs3)C2)cc1 (centres undefined) | 2850 nM
Cc1nn(-c2ccccc2Cl)c(Cl)c1/C=N/Nc1cccc(C(=O)O)c1 | 4370 nM

SMILES | EC50
O=C(Nc1ccc(Cl)cc1)C1=Cc2ccccc2OC1 | 2230 nM
COc1ccc(-c2cn3c4c(sc3n2)CCCC4)cc1 | 650 nM
Cn1ccc(C(=O)Nc2ccc(Br)cc2Br)n1 | 29500 nM
COC(=O)CSc1nc2cc(OC)ccc2cc1C#N | 295 nM
CC(=O)c1ccc(Nc2ccc(-c3ccccc3F)nn2)cc1 | 838 nM
Cc1ccc2oc(-c3cccc(N)c3)nc2c1 | 660 nM
Cc1ccc(NC(=O)c2cc3c(s2)CCCC3)cc1 | 10400 nM
O=C(/C=C/c1cccs1)N1CCc2ccccc21 | 356 nM
COc1ccc(/C=C/c2nc3ccccc3n2Cc2ccc(OC)c(OC)c2)cc1 | 943 nM
Cc1ccc2nc(NC(=O)c3cccs3)sc2c1 | 389 nM
CCOC(=O)c1cnc(Nc2nc3ccccc3o2)nc1CSC(=S)N(CC)CC | 2320 nM
O=C(NCCC1=CCCCC1)c1ccc(Cl)cc1 | 198 nM
Cc1ccc(-c2cc(-c3cccc(F)c3)n[nH]2)c(O)c1 | 4400 nM
Oc1ccccc1-c1cc(-c2ccccc2)no1 | 1780 nM
CN(c1ccc(O)cc1)c1nc(-c2ccccc2)cs1 | 1020 nM
CCC(=O)NC(c1ccccc1OC)c1ccc2cccnc2c1O (centres undefined) | 8390 nM
CCCCc1ccc(NC(=O)c2cnccn2)cc1 | 250 nM
O=C(Nc1nc2ccccc2[nH]1)c1cc2ccccc2o1 | 1230 nM
CCc1ccc2oc(-c3ccc(N)cc3)nc2c1 | 342 nM
